Key:
[1] = test system: mechanical allodynia induced by spinal nerve ligation in rats; assay: Rat (Chung) model of neuropathic pain, von Frey paw withdrawal threshold; format: in vivo; settings: for Withdrawal threshold (g) at peak effect: spinal nerve ligation; for Effect on mechanical allodynia (in words): oral administration, three doses; for ED50: po, read-out: ED50 at peak effect (dose at which allodynia is reversed by 50%)
Method: In this model, mechanical allodynia is induced by tight ligation of the left L5 spinal nerve.
Male Wistar rats (150-175 g body weight at time of surgery) were employed in the study. Rats were placed on an elevated (˜40 cm) mesh floor in perspex boxes and the rats' withdrawal threshold to a mechanical stimulus (calibrated von Frey filaments) was measured using filaments of increasing force (2.6-167 mN). The von Frey filaments were applied to the plantar surface of the paw and the thershold response was determined using the up and down method. A positive response was noted if the paw was sharply withdrawn. A cut-off of 15 g was selected as the upper limit for testing. Following baseline measurements each animal was anaesthetised and the L5 spinal nerve tightly ligated. The animals were allowed to recover from the surgery for a period of at least three days. On the day of drug administration the paw withdrawal thresholds were re-measured (0 min). Immediately after this reading, the rats were dosed orally with vehicle or test compound. Readings were then made at intervals of 30, 60, 120, 180 and 240 min after compound administration.
Data were expressed as mean±s.e.m. The time of maximum effect for each animal in the top dose group was determined and these values averaged to calculate the mean time of maximum effect. For analytical purposes the time of maximum effect, tmax was defined as the time point closest to this averaged value. Data at tmax were compared between groups using the Kruskal-Wallis one-way analysis of variance, a non-parametric statistical test. Each of the treatment groups were then compared against the vehicle group, using the non-parametric Dunn's test. The ED50 (dose at which allodynia is reversed by 50%) value was also calculated at tmax using non linear regression (sigmoidal dose response; variable slope) with constants of 0 and 15 g (cut-off) for the bottom and top, respectively (XLFit software).

[2] = test system: tail flick latency in mice; assay: Mouse tail flick assay of acute thermal pain; format: in vivo; settings: for Tail Flick Latency: mouse; for Effect on tail flick latencies (in words): oral administration, three doses, mouse, 20, 40 and 60 min post administration
Method: The tail flick test is used to evaluate the antinociceptive activity of test compounds in mice. Animals are placed on the tail flick apparatus and their tails exposed to a focused beam of radiant heat. The mice react to the noxious thermal stimulus by flicking their tail away from the heat source. The time taken for these responses to occur is measured (latency; s).
Experiments were performed using male ICR mice weighing (25-32 g). In brief, animals were held in place on the tail flick apparatus (Ugo Basile, Italy) by means of a perspex restrainer and their tail was positioned over the heat source. The latency to flick the tail from the radiant heat source focussed 2.5 cm from the tip was determined before (baseline readings) and at regular intervals after administration of the vehicle or test compounds (compound 1, 5.6-55.6 μmol/kg p.o.; compound 2, 5.3-52.6 μmol/kg p.o.). A 12 seconds cut-off was employed to prevent tissue damage.
Data are expressed as mean±s.e.m. and compared between groups using the Kruskal-Wallis one-way analysis of variance, a non-parametric statistical test. If statistical significance (P<0.05) is observed with this test, the vehicle group and each of the treatment groups is compared using the non-parametric Dunn's test.

[3] = test system: mechanical hyperalgesia induced by complete Freund's adjuvant in rats; assay: Rat CFA model of inflammatory pain, Randall-Sellito paw withdrawal threshold; format: in vivo; settings: for % Attenuation of hyperalgesia (peak effect): 7 days after CFA, peak effect 30 min
Method: In this model, inflammation is induced by subcutaneous injection of complete Freund's adjuvant (CFA) into the hind paw. The associated mechanical hyperalgesia is quantified by measuring the reduction in paw withdrawal threshold (PWT) to a mechanical compression of the paw.
Experiments were in male Wistar rats weighing (130-180 g). In brief, the rats' paw withdrawal threshold (PWT) to a mechanical compression of the hind paw was measured (baseline reading) using a Randall-Sellito apparatus (Ugo Basile). A cut-off of 200 g was employed to minimise tissue damage to the paw. The animals were then lightly anaesthetised with isoflurane (1-3%) and CFA (0.1 ml·paw^−1) injected subcutaneously (s.c.) into the plantar surface of the left hind paw. The animals were then returned to their home cage and left for the inflammation to develop.
Seven days after CFA injection, PWT's were re-measured (0 min) and immediately after this reading, rats were dosed orally with either vehicle or compound 2 (3-30 mg/kg). Readings were then made at 30 min and 2 h post drug administration.
Data were plotted as mean±s.e.m. and compared between groups using the Kruskal-Wallis one-way analysis of variance, a non-parametric statistical test. […] The percent attenuation of mechanical hyperalgesia is calculated at time of peak effect (tmax)

[4] = test system: tolerance development to the analgesic activity of morphine; settings: Database WPI, Derwent abstract; cited from earlier work

COc1cc(-c2nc3ccc(-c4cccc(CN(C)C)c4)cc3c(=O)n2CC(=O)NC(C)C)ccc1F [Compound 1, 2-[6-(3-Dimethylaminomethylphenyl)-2-(4-fluoro-3-methoxyphenyl)-4-oxo-4H-quinazolin-3-yl]-N-isopropylacetamide]
Withdrawal threshold (g) at peak effect ([1]; 5.6 μmol/kg p.o., peak effect 120 min): 4.6 ± 0.6 g | Withdrawal threshold (g) at peak effect ([1]; 18.6 μmol/kg p.o., peak effect 120 min): 5.6 ± 1.1 g | Withdrawal threshold (g) at peak effect ([1]; 55.6 μmol/kg p.o., peak effect 120 min): 11.4 ± 0.7 g | Effect on mechanical allodynia (in words) [1]: reversed mechanical allodynia in a dose-dependent fashion | Time of peak anti-allodynic effect post drug administration ([1]; p.o.): 120 min | ED50 ([1]; at tmax): 21.2 µmol/kg | Tail Flick Latency ([2]; 5.6 μmol/kg p.o., 20 min post dose): 3.5 ± 0.4 s | Tail Flick Latency ([2]; 5.6 μmol/kg p.o., 40 min post dose): 3.4 ± 0.2 s | Tail Flick Latency ([2]; 5.6 μmol/kg p.o., 60 min post dose): 3.5 ± 0.2 s | Tail Flick Latency ([2]; 18.6 μmol/kg p.o., 20 min post dose): 3.4 ± 0.3 s | Tail Flick Latency ([2]; 18.6 μmol/kg p.o., 40 min post dose): 3.5 ± 0.2 s | Tail Flick Latency ([2]; 18.6 μmol/kg p.o., 60 min post dose): 3.1 ± 0.2 s | Tail Flick Latency ([2]; 55.6 μmol/kg p.o., 20 min post dose): 3.3 ± 0.3 s | Tail Flick Latency ([2]; 55.6 μmol/kg p.o., 40 min post dose): 3.5 ± 0.3 s | Tail Flick Latency ([2]; 55.6 μmol/kg p.o., 60 min post dose): 3.3 ± 0.2 s | Effect on tail flick latencies (in words) [2]: had no effect on tail flick latencies

CC(C)NC(=O)Cn1c(-c2cccc(Cl)c2)nc2ccc(OCCCN3CCCCC3)cc2c1=O [Compound 2]
Withdrawal threshold (g) at peak effect ([1]; 5.3 μmol/kg p.o., peak effect 30 min): 4.8 ± 1.0 g | Withdrawal threshold (g) at peak effect ([1]; 17.3 μmol/kg p.o., peak effect 30 min): 6.7 ± 1.1 g | Withdrawal threshold (g) at peak effect ([1]; 52.6 μmol/kg p.o., peak effect 30 min): 9.8 ± 1.8 g | Effect on mechanical allodynia (in words) [1]: reversed mechanical allodynia in a dose-dependent fashion | Time of peak anti-allodynic effect post drug administration ([1]; p.o.): 30 min | ED50 at peak effect (dose at which allodynia is reversed by 50%) ([1]; p.o., at tmax): 21.0 µmol/kg | % Attenuation of hyperalgesia (peak effect) ([3]; 5.7 μmol/kg p.o.): 31.5 ± 9.4% | % Attenuation of hyperalgesia (peak effect) ([3]; 18.9 μmol/kg p.o.): 43.1 ± 8.6 % | % Attenuation of hyperalgesia (peak effect) ([3]; 56.6 μmol/kg p.o.): 84.4 ± 12.0 % | Effect on mechanical hyperalgesia induced by CFA (in words) ([3]; oral administration 5.7, 18.9 or 56.6 μmol/kg): reversed mechanical hyperalgesia induced by CFA in a dose-dependent fashion | ED50 at peak effect (mechanical hyperalgesia) ([3]; p.o., CFA): 19.2 µmol/kg | Time of peak anti-algesic effect post drug administration ([3]; p.o., CFA): 30 min | Tail Flick Latency ([2]; 5.3 μmol/kg p.o., 20 min post dose): 3.4 ± 0.2 s | Tail Flick Latency ([2]; 5.3 μmol/kg p.o., 40 min post dose): 3.7 ± 0.2 s | Tail Flick Latency ([2]; 5.3 μmol/kg p.o., 60 min post dose): 3.6 ± 0.1 s | Tail Flick Latency ([2]; 17.3 μmol/kg p.o., 20 min post dose): 3.6 ± 0.1 s | Tail Flick Latency ([2]; 17.3 μmol/kg p.o., 40 min post dose): 3.6 ± 0.1 s | Tail Flick Latency ([2]; 17.3 μmol/kg p.o., 60 min post dose): 3.1 ± 0.1 s | Tail Flick Latency ([2]; 52.6 μmol/kg p.o., 20 min post dose): 3.5 ± 0.2 s | Tail Flick Latency ([2]; 52.6 μmol/kg p.o., 40 min post dose): 3.5 ± 0.2 s | Tail Flick Latency ([2]; 52.6 μmol/kg p.o., 60 min post dose): 3.2 ± 0.2 s | Effect on tail flick latencies (in words) [2]: had no effect on tail flick latencies

COc1ccc(S(=O)(=O)N2C(=O)[C@@](c3ccccc3OC)(N3C[C@H](O)C[C@H]3C(=O)N(C)C)c3cc(Cl)ccc32)c(OC)c1 [Compound 3, reference compound]
Withdrawal threshold (g) at peak effect ([1]; 3 μmol/kg p.o., peak effect 180 min): 5.0 ± 1.0 g | Withdrawal threshold (g) at peak effect ([1]; 10 μmol/kg p.o., peak effect 180 min): 6.9 ± 1.3 g | Withdrawal threshold (g) at peak effect ([1]; 30 μmol/kg p.o., peak effect 180 min): 10.1 ± 1.4 g | Effect on mechanical allodynia (in words) [1]: reversed mechanical allodynia in a dose-dependent fashion | Time of peak anti-allodynic effect post drug administration ([1]; p.o.): 180 min | ED50 ([1]; at tmax): 10.6 µmol/kg | Effect on tolerance development to the analgesic activity of morphine (in words) [4]: inhibits the tolerance development to the analgesic activity of morphine

Source: patent US20100179176A1, “V3 ANTAGONISTS FOR THE TREATMENT OR PREVENTION OF CHRONIC PAIN” (N.V. Organon, priority 2007, published 2010)
